Experimental findings from patent US11001564B2, “Substituted chromane-8-carboxamide compounds and analogues thereof, and methods using same” (priority 2016, dated 2021) are described below.

pEC50: −log10 of the molar value. Where a name gives a salt, the structure may show the parent alone.

In the first test the test system is HBV rcDNA in HepDE19 cells. Put plainly: HepDE19 assay with bDNA quantitation of HBV rcDNA. It is filed as cell-based, hepatitis B virus (HBV). Particulars: Hepatitis B virus, HepDE19, 168 h, HepDE19 cells, 7 day incubation, rcDNA by Quantigene 2.0 bDNA assay; read-out: DE-19 bDNA EC50. The procedure: HepDE19 Assay with bDNA Quantitation of HBV rcDNA:
HepDE19 cell culture system is a HepG2 (human hepatocarcinoma) derived cell line that supports HBV DNA replication and cccDNA formation in a tetracycline (Tet)-regulated manner and produces HBV rcDNA and a detectable reporter molecule dependent on the production and maintenance of cccDNA (Guo, et al., 2007, J. Virol. 81:12472-12484).
HepDE19 (50,000 cells/well) were plated in 96 well collagen-coated tissue-culture treated microtiter plates in DMEM/F12 medium supplemented with 10% fetal bovine serum, 1% penicillin-streptomycin and 1 μg/mL tetracycline and incubated in a humidified incubator at 37° C. and 5% CO2 overnight. Next day, the cells were switched to fresh medium without tetracycline and incubated for 4 hours at 37° C. and 5% CO2. The cells were treated with fresh Tet-free medium with compounds at concentrations starting at 25 μM and a serial, ½ log, 8-point, titration series in duplicate. The final DMSO concentration in the assay was 0.5%. The plates were incubated for 7 days in a humidified incubator at 37° C. and 5% CO2. Following a 7 day-incubation, the level of rcDNA present in the inhibitor-treated wells was measured using a Quantigene 2.0 bDNA assay kit (Affymetrix, Santa Clara, Calif.) with HBV specific custom probe set and manufacturers instructions. Concurrently, the effect of compounds on cell viability was assessed using replicate plates, plated at a density of 5,000 cells/well and incubated for 4 days, to determine the ATP content as a measure of cell viability using the cell-titer glo reagent (CTG; Promega Corporation, Madison, Wis.) as per manufacturer's instructions. The plates were read using a Victor luminescence plate reader (PerkinElmer Model 1420 Multilabel counter) and the relative luminescence units (RLU) data generated from each well was calculated as % inhibition of the untreated control wells and analyzed using XL-Fit module in Microsoft Excel to determine EC50 and EC90 (bDNA) and CC50 (CTG) values using a 4-parameter curve fitting algorithm.
Representative compounds of the invention were tested for their ability to inhibit formation of relaxed circular DNA (rcDNA) in a HepDE19 assay, as described elsewhere herein.
Regarding `Cc1cc(NC(=O)c2ccc(F)c3c2OCC[C@@H]3NC(=O)OCc2cccc(N3CCOCC3)n2)ccc1F` [Compound 167, (6-Morpholinopyridin-2-yl)methyl (S)-(5-fluoro-8-((4-fluoro-3-methylphenyl)carbamoyl)chroman-4-yl)carbamate], the pEC50 (commonly −log10 of the EC50, conventionally taken in molar units) is 5.74. Consider `O=C(Nc1ccc(F)c(F)c1)c1cccc2c1OCC[C@H]2NC(=O)N1CCCC1` [Compound 24, (R)-N-(8-((3,4-difluorophenyl)carbamoyl)chroman-4-yl)pyrrolidine-1-carboxamide], for which the pEC50 is 4.62.

On to `CNC(=O)N[C@H]1CCOc2c(C(=O)Nc3ccc(F)c(F)c3)cc(N)cc21` [Compound 149, (S)-6-Amino-N-(3,4-difluorophenyl)-4-(3-methylureido)chromane-8-carboxamide], for which the pEC50 was 4.70. On to `O=C(Nc1ccc(F)c(F)c1)c1ccc(Cl)c2c1OCCC2=O` [Compound 78, 5-chloro-N-(3,4-difluorophenyl)-4-oxochromane-8-carboxamide], for which the pEC50 was 5.14. `O=C(Nc1ccc(F)c(F)c1)c1c(F)ccc2c1OCC[C@@H]2Nc1ncccn1` [Compound 56, (S)—N-(3,4-Difluorophenyl)-7-fluoro-4-(pyrimidin-2-ylamino)chromane-8-carboxamide]: the pEC50 was 5.60. As for `O=C(Nc1ccc(F)c(F)c1)c1ccc(F)c2c1OCC[C@@H]2Nc1ncccn1` [Compound 89, (S)—N-(3,4-Difluorophenyl)-5-fluoro-4-(pyrimidin-2-ylamino)chromane-8-carboxamide], the pEC50 is 5.96.

As to `COC(=O)N[C@H]1CCOc2c(C(=O)NCc3ccc(F)cc3)cccc21` [Compound 31, Methyl (S)-(8-((4-fluorobenzyl)carbamoyl)chroman-4-yl)carbamate], the pEC50 is 4.77. With `COC(=O)N[C@H]1CCOc2c(C(=O)Nc3ccc(F)c(F)c3)cc(N)cc21` [Compound 148, Methyl (S)-(6-amino-8-((3,4-difluorophenyl)carbamoyl)chroman-4-yl)carbamate], the pEC50 is 5.19. Take `O=C(N[C@H]1CCOc2c1ccc(Cl)c2C(=O)Nc1ccc(F)c(F)c1)OCc1ccccn1` [Compound 90, Pyridin-2-ylmethyl (S)-(7-chloro-8-((3,4-difluorophenyl)carbamoyl)chroman-4-yl)carbamate]: the pEC50 is 5.08. For `O=C(Nc1ccc(F)c(Cl)c1)c1ccc(F)c2c1OCCC2=O` [Compound 79, N-(3-chloro-4-fluorophenyl)-5-fluoro-4-oxochromane-8-carboxamide], the pEC50 is 5.28. Take `CN1CCC(COC(=O)N[C@H]2CCOc3c(C(=O)Nc4ccc(F)c(F)c4)cccc32)C1` (stereo partly drawn) [Compound 127, (1-methylpyrrolidin-3-yl)methyl ((S)-8-((3,4-difluorophenyl)carbamoyl)chroman-4-yl)carbamate]: the pEC50 was 4.62. Regarding `COC(=O)N[C@H]1CCCc2c(C(=O)Nc3ccc(F)c(F)c3)cccc21` [Compound 184, Methyl (S)-(5-((3,4-difluorophenyl)carbamoyl)-1,2,3,4-tetrahydronaphthalen-1-yl)carbamate], the pEC50 is 5.06. With `COC(=O)N[C@H]1CCOc2c(C(=O)Nc3cc(F)cc(F)c3)cccc21` [Compound 46, Methyl (S)-(8-((3,5-difluorophenyl)carbamoyl)chroman-4-yl)carbamate], the pEC50 is 5.24.

On to `CC(=O)N[C@H]1CCOc2c(C(=O)Nc3ccc(F)c(C)c3)ccc(F)c21` [Compound 121, (4S)-4-Acetamido-5-fluoro-N-(4-fluoro-3-methylphenyl)-3,4-dihydro-2H-1-benzopyran-8-carboxamide], for which the pEC50 was 6.21. Take `Cc1cccc(COC(=O)N[C@H]2CCOc3c(C(=O)Nc4ccc(F)c(Cl)c4)cccc32)n1` [Compound 52, (6-Methylpyridin-2-yl)methyl (S)-(8-((3-chloro-4-fluorophenyl)carbamoyl)chroman-4-yl)carbamate]: the pEC50 was 5.77. On to `COC(=O)N[C@@H]1CCOc2c(C(=O)Nc3ccc(F)c(F)c3)ccc(F)c21` [Compound 39, methyl (R)-(8-((3,4-difluorophenyl)carbamoyl)-5-fluorochroman-4-yl)carbamate], for which the negative-log EC50 (pEC50) was 5.07.

On to `O=C1CCOc2c1cccc2C(=O)Nc1ccc(F)c(F)c1` [Compound 2, N-(3,4-difluorophenyl)-4-oxochromane-8-carboxamide], for which the pEC50 is 5.64.

Regarding `COCCCOC(=O)N[C@H]1CCOc2c(C(=O)Nc3ccc(F)c(F)c3)cccc21` [Compound 19, 3-Methoxypropyl (8-((3,4-difluorophenyl)carbamoyl)chroman-4-yl) carbamate], the pEC50 is 5.22. For the compound `Cc1cc(NC(=O)c2ccc(F)c3c2OCC[C@@H]3NC(=O)OCc2ccccn2)ccc1F` [Compound 113, Pyridin-2-ylmethyl (S)-(5-fluoro-8-((4-fluoro-3-methylphenyl)carbamoyl)chroman-4-yl)carbamate], the negative logarithm of the EC50 (pEC50) is 6.25. On to `O=C1CCOc2c1ccc(F)c2C(=O)Nc1ccc(F)c(Cl)c1` [Compound 65, N-(3-chloro-4-fluorophenyl)-7-fluoro-4-oxochromane-8-carboxamide], for which the pEC50 was 5.39.

For the compound `Cn1nccc1COC(=O)N[C@H]1CCOc2c(C(=O)Nc3ccc(F)c(F)c3)cccc21` [Compound 100, (1-Methyl-1H-pyrazol-5-yl)methyl (S)-(8-((3,4-difluorophenyl)carbamoyl)chroman-4-yl)carbamate], the pEC50 was 5.59. Still for that read-out and setting: then `O=C(Nc1ccc(F)c(F)c1)c1cccc2c1OCC[C@@H]2Nc1ccncn1` [Compound 67, (S)—N-(3,4-Difluorophenyl)-4-(pyrimidin-4-ylamino)chromane-8-carboxamide], with 5.44. For the compound `COc1ccnc(N[C@H]2CCOc3c(C(=O)Nc4ccc(F)c(F)c4)cccc32)n1` [Compound 54, (S)—N-(3,4-Difluorophenyl)-4-((4-methoxypyrimidin-2-yl)amino)chromane-8-carboxamide], the negative logarithm of the EC50 (pEC50) was 5.39. Regarding `Cc1cc(NC(=O)c2ccc(F)c3c2OCC[C@@H]3NC(=O)OC[C@H]2CCCC(=O)N2)ccc1F` [Compound 142, ((R)-6-Oxopiperidin-2-yl)methyl ((S)-5-fluoro-8-((4-fluoro-3-methylphenyl)carbamoyl)chroman-4-yl)carbamate], the pEC50 was 6.14.

In the case of `O=C(N[C@@H]1CCOc2c(C(=O)Nc3ccc(F)c(F)c3)cccc21)OCc1ccncc1` [Compound 30, pyridin-4-ylmethyl (R)-(8-((3,4-difluorophenyl)carbamoyl)chroman-4-yl)carbamate], the pEC50 is 4.96.

Staying with this test, now noted: Hepatitis B virus, HepDE19, 168 h, read-out: DE-19 bDNA EC50, HepDE19 cells, 7 day incubation, rcDNA by Quantigene 2.0 bDNA assay.
In the case of `CC(C)OC(=O)N[C@H]1CCOc2c(C(=O)Nc3ccc(F)c(F)c3)cccc21` [Compound 20, Isopropyl (8-((3,4-difluorophenyl)carbamoyl)chroman-4-yl)carbamate], the pEC50 is 4.85. Same read-out and setting: then `CC(=O)N1CCCC1COC(=O)N[C@H]1CCOc2c(C(=O)Nc3ccc(F)c(F)c3)cccc21` (single isomer, unassigned) [Compound 139], with 5.34; and `COC(=O)N[C@H]1CCOc2c(C(=O)Nc3ccc(F)c(C)c3)ccc(F)c21` [Compound 117, Methyl (5-fluoro-8-((4-fluoro-3-methylphenyl)carbamoyl)chroman-4-yl)carbamate], with 6.66.

Take `COC(=O)N[C@H]1CCOc2c1ccc(Cl)c2C(=O)Nc1ccc(F)c(F)c1` [Compound 83, Methyl (S)-(7-chloro-8-((3,4-difluorophenyl)carbamoyl)chroman-4-yl)carbamate]: the pEC50 was 5.27. Still for that read-out and setting: then `COC(=O)N[C@@H]1CCOc2c(C(=O)Nc3ccc(F)c(Cl)c3)ccc(F)c21` [Compound 92, (R)-Methyl (8-((3-chloro-4-fluorophenyl)carbamoyl)-5-fluorochroman-4-yl) carbamate], with 5.34; and `COC(=O)N[C@H]1CCOc2c(C(=O)Nc3ccc(F)c(F)c3)ccc(Cl)c21` [Compound 125, Methyl (S)-(5-chloro-8-((3,4-difluorophenyl)carbamoyl)chroman-4-yl)carbamate], with 5.64; and `CNC(=O)N[C@H]1CCOc2c(C(=O)Nc3ccc(F)c(F)c3)ccc(F)c21` [Compound 40, (S)—N-(3,4-difluorophenyl)-5-fluoro-4-(3-methylureido)chromane-8-carboxamide], with 6.17. Regarding `O=C(N[C@H]1CCOc2c(C(=O)Nc3ccc(F)c(F)c3)cccc21)OCc1ncccc1Cl` [Compound 123, (3-Chloropyridin-2-yl)methyl (S)-(8-((3,4-difluorophenyl)carbamoyl)chroman-4-yl)carbamate hydrochloride], the pEC50 is 5.06.
